Results on one molecule are retold here after EP0385936A1, “Peptide lactone and derivatives thereof, process for their production and means for carrying out the process” (CIBA-GEIGY AG, priority 1989, dated 1990).

Data set [1] deals with Arthrobacter crystallopoietes ATCC 15481. The data set is described as follows: Agar dilution series test, minimal inhibitory concentration. Type of data set: cell-based. Particulars: Crystallibacter crystallopoietes, ATCC15481, in vitro, read-out: Minimale Hemmkonzentration. As to the method:
(§1) Hormaomycin zeigt in vitro in einem Agar-Verdünnungsreihentest eine antimikrobielle Wirkung gegen einige Bakterien, z.B. Arthrobacter crystallopoites, Arthrobacter oxydans, Corynebacterium species, Brevibacterium linens und Salmonella typhimurium. Die minimale Hemmkonzentration liegt im Bereich zwischen 0,0001 und 50 µg/ml. Die nachfolgende Tabelle offenbart einige spezifische Beispiele: […]
Background: In agar dilution the substance is mixed into plates at graded concentrations.

Data set [2] relates to Arthrobacter oxydans ATCC 14358. The description is as above. The format is cell-based. Particulars: Pseudarthrobacter oxydans, ATCC14358, in vitro, read-out: Minimale Hemmkonzentration. As to the method:
as §1

Data set [3] has as its system Brevibacterium linens ATCC 9172. The description is as above. Type of data set: cell-based. Particulars: ATCC9172, in vitro, read-out: Minimale Hemmkonzentration. As to the method:
as §1

In data set [4] the test system is Corynebacterium sp. ATCC 23830. The data set is described as above. Type of data set: cell-based. Particulars: ATCC23830, in vitro, read-out: Minimale Hemmkonzentration. As to the method:
as §1

For data set [5], the system named is Salmonella typhimurium ATCC 13311. Described as above. Particulars: Salmonella enterica, in vitro, read-out: Minimale Hemmkonzentration. The format is cell-based. As for the experimental part:
as §1

In data set [6] the test system is Streptomyces griseoflavus (Tü 1306). The data set is described as follows: Increase of tirandamycin production in fermentation broth. Type of data set: cell-based. As to the method:
(§2) Hormaomycin bewirkt bereits in einer Konzentration ab etwa 0,05 µg/ml bei einigen Streptomyceten-Stämmen eine Erhöhung der Bildung von Antibiotika.

For data set [7], the system named is einigen Streptomyceten-Stämmen. The data set is described as follows: Increase of antibiotic formation in Streptomyces strains. The format is cell-based. Particulars: lowest effective concentration; read-out: Konzentration, ab der eine Erhöhung der Bildung von Antibiotika bewirkt wird. As to the method:
as §2

Data set [8] relates to Streptomyces griseoflavus (DSM 5195). The data set is described as follows: Induction of aerial mycelium on test plates (paper disc on agar). Type of data set: cell-based. To be noted: 1 µg in a paper disc on agar on which no aerial mycelium develops. An excerpt:
Hormaomycin induziert die Luftmycelbildung von Streptomyces griseoflavus (DSM 5195) und von weiteren Streptomyces-Stämmen. […] Zusätzlich induziert die Substanz die Antibiotikaproduktion in diesen Stämmen.

Data set [9] has as its system durch anti-CD 3 monoklonale Antikörper induzierten T-Zell-Proliferation in menschlichem Blut. The data set is described as follows: Inhibition of T-cell proliferation induced by anti-CD 3 monoclonal antibodies in human blood (3H-thymidine). The format is cell-based, menschlich. To be noted: 50 ng/ml anti-CD 3 antibody, 48 h + 16 h 3H-thymidine, read-out: IC₅₀. As to the method:
Hemmung der durch anti-CD 3 monoklonale Antikörper induzierten T-Zell-Proliferation in menschlichem Blut
Venöses menschliches Blut wird mit 10 Einheiten Heparin pro ml versetzt und im Verhältnis 1:6 (v:v) mit RPMI 1640 Medium (Gibco) verdünnt. Nach Zugabe von 50 ng/ml anti-CD 3 monoklonalen Antikörpern (TR 66, IgG1K) werden pro Loch 150 µl verdünntes Blut in eine Lochtiterplatte mit 96 Löchern eingefüllt. Dann werden pro Loch 50 µl einer Verbindung der Formeln I oder III in dem obengenannten RPMI Medium hinzugefügt. Als Referenzverbindungen verwendet man Cyclosporin A (CSA, Sandoz, Basel, Schweiz) oder Prednisolon.
Nach 48 Stunden bei 37°C und einem Gehalt von 7 Volumenprozent CO₂ in der Luft fügt man pro Loch 1.0 µCi ³H-Thymidin in 10 µl RPMI Medium (Amersham: spezifische Aktivität 5 Ci/mMol).
Nach weiteren 16 Stunden werden die Zellen mit einer 96-Loch-Erntemaschine (LKB, Bromma, Schweden) auf Glasfiberfiltern (LKB) geerntet. Nach dem Trocknen der Filter wird ihre Radioaktivität gemessen (Optiscint[LKB], Betaplatten-Scintillations-Zähler [LKB]). Die Ergebnisse werden als Durchschnittswerte der für jedes Loch bei drei verschiedenen Konzentrationen in An- und Abwesenheit der Prüfsubstanzen ermittelten cpm (counts pro Minute) ausgedrückt und die Wirkung der Substanzen wird als prozentuale Hemmung angegeben, welche folgendermassen definiert ist: [formula] […]

The subject of data set [10] is durch Interleukin-2 induzierten T-Zell-Proliferation in menschlichem Blut. The data set is described as follows: Inhibition of T-cell proliferation induced by interleukin-2 in human blood (3H-thymidine). The format is cell-based, menschlich. Particulars: 100 Einheiten/ml recombinant interleukin-2, read-out: IC₅₀.
A short description of data set [11]: Solubility in solvents (qualitative). The format is physicochemical. An excerpt: Hormaomycin ist neutral, löst sich gut in Methanol, Chloroform, Aceton und Essigsäureethylester und ist in Wasser oder Hexan unlöslich. Auf Dünnschichtchromatographie-Platten löscht es UV-Licht (254 nm), färbt sich beim Stehen an der Luft langsam gelb und lässt sich nach Barrollier (blaugrün) und mit Ehrlich's Reagenz (blass violett), nicht jedoch mit Ninhydrin anfärben.

In brackets after ≈: the same amount, converted by molar mass.

With `C/C=C\C1CC2C(=O)OC(C)C(NC(=O)C(CC3CC3[N+](=O)[O-])NC(=O)c3ccc(Cl)n3O)C(=O)NC(C(C)c3ccccc3)C(=O)NC(CC3CC3[N+](=O)[O-])C(=O)NC(C(C)c3ccccc3)C(=O)NC(C(C)CC)C(=O)N2C1` (stereo not shown) [Hormaomycin], the MIC in [1] was determined as 0.0001 µg/mL (≈ 0.0885 nM); in [2], 0.0005 µg/mL (≈ 0.443 nM); in data set [3], 10 µg/mL (≈ 8850 nM); in [4], 0.1 µg/mL (≈ 88.5 nM); in data set [5], 50 µg/mL (≈ 44300 nM). In addition, the “Produktion des Antibiotikums Tirandamycin” value in data set [6] (Hormaomycin 0,05 µg/ml added to fermentation broth) was “Verdoppelung”; in data set [6] (Hormaomycin 1 µg/ml added to fermentation broth), “ungefähre Vervierfachung”. Besides, in data set [7], the minimal effective concentration was about 0.05 µg/mL. Also, in data set [8], the Luftmycelbildung result was “reichliche Luftmycelbildung”. Moreover, the IC50 lay within 1.5 to 15 µM in data set [9] and 4 to 40 µM in [10]. For the same molecule, the Löslichkeit result in [11] (in Methanol, Chloroform, Aceton und Essigsäureethylester) was “löst sich gut”; in data set [11] (in Wasser oder Hexan) it was “unlöslich”.
